{"source": "patent US20240207403A1", "about": "“PERSONALIZED IMMUNOTHERAPY USING INTESTINAL METABOLITES” (Evolve Biosystems, Inc., priority 2021, published 2024)", "key": {"[1]": {"test_system": "Aryl hydrocarbon Receptor (AhR)", "settings": "bifidobacteria-derived ILA; cited from earlier work"}, "[2]": {"target": "hydrocarboxylic acid receptor 3 (HCAR3) (Homo sapiens, UniProt P49019)", "sequence (P49019 whole entry)": "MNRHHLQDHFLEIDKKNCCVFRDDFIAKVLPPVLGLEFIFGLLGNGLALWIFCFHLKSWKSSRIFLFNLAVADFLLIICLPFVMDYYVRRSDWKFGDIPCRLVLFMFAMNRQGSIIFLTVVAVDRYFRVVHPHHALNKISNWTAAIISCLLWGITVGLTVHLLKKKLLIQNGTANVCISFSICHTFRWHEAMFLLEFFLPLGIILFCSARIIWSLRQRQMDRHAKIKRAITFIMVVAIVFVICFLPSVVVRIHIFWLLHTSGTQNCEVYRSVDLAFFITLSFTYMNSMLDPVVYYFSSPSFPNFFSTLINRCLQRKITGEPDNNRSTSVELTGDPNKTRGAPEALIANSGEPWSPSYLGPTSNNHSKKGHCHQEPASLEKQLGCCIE", "settings": "bifidobacteria-derived ILA; cited from earlier work"}, "naïve CD4+ T-cells": {"test_system": "naïve CD4+ T-cells", "assay": "In vitro polarization of naïve CD4+ T-cells with fecal water, ILA or IFNβ, read out by targeted sc-mRNA-seq", "format": "cell-based, human", "settings": "for LGALS1 (Galectin-1) in Th0, Th2 and Th17 cells: ILA alone (1 mM) during polarization", "procedure": "To evaluate the cellular states of polarized T-cells, the inventors applied a targeted multiomics approach quantifying 259 mRNA molecules with known functions in T-cells and 10 surface proteins detected by oligo-coupled antibodies (Abseq™, Rhapsody™, BD Biosciences) (Mair et al., 2020).\nT-cell polarization experiments. PBMC derived CD3 CD4 CD45RA″ naïve T-cells (CD8/14/19/56 negative) into an enriched culture medium including RPMI 1640+10% FBS+NEAA+1% Pen-strep+55 μM β-mercaptoethanol. Cells are added at a concentration of 2×10^5 cells/ml and pre-washed and resuspended 2.5 ml T-Activator Dynabeads are added to obtain a bead:cell ratio of 1:2. One milliliter of bead/cell suspension was added to 24-well plate and the following polarizing supplements Th0: No cytokines, Th1: IL-12 (50 nanogram (ng)/ml), Anti-human IL-4 antibody (1 μg/ml) Th2: IL-4 (10 ng/ml), Anti-human IFN-γ antibody (1 μg/ml), Th17: IL-6 (50 ng/ml), IL-23 (20 ng/ml), IL-1B (10 ng/ml), TGF-β1 (5 ng/ml), Anti-hum IL-4 (1 μg/ml), Anti-human IFN-γ antibody (1 μg/ml), iTreg: TGF-β1 (5 ng/ml), IL-2 (10 ng/ml) IFN-β: IFN-β (10 ng/ml). Cells are incubated at 37 °C, 5% CO2 humidified incubator for 5 days and harvested.\nTargeted transcriptome and protein by BD Rhapsody single cell RNA Sequencing. Polarized T cells in each condition were labeled using BD Single-Cell Multiplexing Kit and BD AbSeq Ab-Oligos reagents strictly following the manufacturers protocol (BD Biosciences). Briefly, cells from each experiment condition were labelled with each sample tag and pooled 18 AbSeqAb-Oligos. Each sample was then washed twice, counted and resuspended in cold BD SampleBuffer, then calculated the cell number in each sample, then pooled the required number of cells from each sample to get approximately 20,000 cells in 620 μl for each cartridge (around 9 samples for each cartridge). After priming the nanowell cartridges, the pooled sample was loaded onto BDRhapsody cartridges and incubated at room temperature. Cell Capture Beads were prepared and then loaded onto the cartridge. According to the manufacturers protocol, cartridges were washed, cells were lysed, and Cell Capture Beads were retrieved and washed prior to performing reverse transcription and treatment with Exonuclease I. cDNA Libraries were prepared using mRNA Targeted, Sample Tag, and BD AbSeq Library Preparation with the BD Rhapsody Targeted mRNA and AbSeq Amplification Kits and protocol. […] Quality and quantity of PCR products were determined by using an Agilent 2100 Bioanalyzer and Qubit Fluorometer using the Qubit dsDNA HS Kit (ThermoFisher). […] Quality of final libraries was assessed by using Agilent Bioanalyzer and quantified using a Qubit Fluorometer. […]"}, "[3]": {"settings": "ILA alone (1 mM) instead of fecal water"}}}
{"smiles": "O=C(O)C(O)Cc1c[nH]c2ccccc12", "note": "(stereo not drawn) [ILA, Indole-3-lactic acid]", "values": [{"measurement": "binding to AhR", "setting": "[1]", "result": "bind"}, {"measurement": "binding to HCAR3", "setting": "[2]", "result": "bind"}, {"measurement": "LGALS1 (Galectin-1) in Th0, Th2 and Th17 cells", "setting": "naïve CD4+ T-cells", "result": "strongly upregulated"}, {"measurement": "LGALS1 (Galectin-1) in Th0, Th2 and Th17 cells", "setting": "naïve CD4+ T-cells; listed as indole-3-lactic acid", "result": "upregulated"}, {"measurement": "CXCR3 mRNA in Th0, Th2 and Th17 cells", "setting": "naïve CD4+ T-cells; [3]", "result": "upregulated"}, {"measurement": "granzyme B mRNA in Th0, Th2 and Th17 cells", "setting": "naïve CD4+ T-cells; [3]", "result": "upregulated"}]}
